Structures are written as SMILES. Activity calls are given as the source filed them.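 Rule for the calls: active = AC50 no more than tenfold above the top dose tested, or full inhibition at every dose with a flat fit (cut at about 19 µM in these data); inconclusive = flat curve fit with inhibition between 30% and 70%, or poor fit; inactive = AC50 more than tenfold above the top dose tested.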

The test concerns HMLE_sh_eGFP viability, CellTiter-Glo luminescence, 72 h. Kind of test: viability loss of HMLE_sh_eGFP cells – cell-based, luminescence, counter-screen for HMLE_sh_ECad selective toxicity project, dose response (AID 463074).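 Note: counterscreen control line to flag general toxicity for the HMLE_sh_ECad screen; potency for loss of viability as luminescence drops below DMSO wells.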 On the technique in general: Counterscreens check selectivity or assay interference.
As a reminder, the AC50 is the concentration giving half of the maximal activity seen. As for `C=C1[C@@H](O)[C@@H]2O[C@]3(CC[C@H](/C=C/[C@@H](C)[C@@H]4CC(C)=CC5(O[C@H](C[C@@](C)(O)C(=O)OC)CC[C@H]5O)O4)O3)CC[C@H]2O[C@@H]1[C@@H](O)C[C@H](C)[C@H]1OC2(CCCCO2)CC[C@H]1C` (some centres not stated), the half-maximal activity concentration (AC50) was less than 0.16 µM.
Take `C=CCn1c(=O)c(C(=O)NCCc2ccccc2)c(O)c2ccccc21`: the AC50 is 5.77 µM.
Take `CCn1c(=O)c(C(=O)NCc2ccccc2OC)c(O)c2ccccc21`: the AC50 is 17.4 µM.
As to `COc1cc(OC)cc(-c2nnc(SCC(=O)N(Cc3ccccc3)C(C)(C)C)o2)c1`, the AC50 is 2.74 µM.
Regarding `Cc1ccc(C(=O)NC(=C(Cl)Cl)S(=O)(=O)c2ccc(C)cc2)cc1`, the half-maximal activity concentration (AC50) was 5.16 µM.
On to `COc1ccc2nc(C)cc(N/N=C/c3ccccc3)c2c1`, for which the AC50 was 7.36 µM.
Turning to `Cc1ccc(OCCCCN(C)Cc2ccccc2)c(Br)c1`, the half-maximal activity concentration (AC50) is 12.5 µM.
`COc1cccc(-c2cc(=O)c3cc(NC(=O)c4ccc(N(C)C)cc4)ccc3[nH]2)c1`: the half-maximal activity concentration (AC50) was 0.559 µM.
Take `C=C(Br)Cn1c(CCCC)nc2ccccc21`: the AC50 was 0.645 µM.
As to `CC1CCC2C(=O)N(c3ccc(NC4CCCCC4)c([N+](=O)[O-])c3)C(=O)C2C1` (configuration not stated), the AC50 was 4.01 µM.
As for `COc1ccc(-n2c(Cc3cccn3C)nnc2SCC(=O)Nc2cccc(Cl)c2)cc1`, the figure is > 19.5 µM (inactive).
As for `NC(=O)CC(NC(=O)Cc1cccc2ccccc12)c1ccc(NC2CCCCCCC2)c([N+](=O)[O-])c1` (configuration not stated), the AC50 is 12 µM.
Turning to `CC1(C)CCC[C@]2(C)[C@H]3Cc4cc(O)ccc4O[C@]3(C)CC[C@@H]12`, the half-maximal activity concentration (AC50) is 6.89 µM.
Turning to `COc1ccc2cc(/C=N/NC(=O)c3ccc(CN(c4cccc(Cl)c4Cl)S(C)(=O)=O)cc3)c(Cl)nc2c1`, the concentration at half-maximal activity (AC50) was 0.211 µM.
For `O=C1C(Cl)=C(Nc2ccccc2)C(=O)c2ccccc21`, the AC50 is 2.19 µM.
Under `O=[N+]([O-])c1cc(S(=O)(=O)C(F)(F)F)ccc1Sc1nc2ccccc2[nH]1` stands 4.46 µM.
With `CC[C@@H]1Cc2cc(O)ccc2C2=C1c1ccc(O)cc1C[C@H]2CC`, the concentration at half-maximal activity (AC50) was 4.15 µM.
For `CCCC(c1nnnn1CC1CCCO1)N1CCN(c2cc(Cl)ccc2C)CC1` (configuration not stated), the AC50 was 2.78 µM.
For the compound `CCN(CC)CCCNC(=S)N1CCN(c2nc(-c3ccc(F)cc3)cs2)CC1`, the AC50 was 2.44 µM.
For the compound `N#Cc1ccc(Nc2nc(-c3ccc(O)cc3O)cs2)cc1C(F)(F)F`, the AC50 is 3.87 µM.
On to `CCCC/C(C)=C/[C@@H](NP(=O)(c1ccccc1)c1ccccc1)c1ccccc1`, for which the AC50 was 6.68 µM.
For the compound `COc1cccc(C(=O)/C=C/c2ccc(N3CCCCC3)c([N+](=O)[O-])c2)c1`, the AC50 is 6.69 µM.
Under `O=C(/C=C/c1ccc2c(c1)OCO2)c1c(O)n(CCC2=CCCCC2)c(=O)[nH]c1=O` stands 1.63 µM.
Turning to `Oc1ccc(C2=NN(c3ccccc3)C(c3ccc(F)cc3)C2)cc1` (configuration not stated), the AC50 was 3.45 µM.
On to `Clc1ccc(COC(Cn2ccnc2)c2ccc(Cl)cc2Cl)c(Cl)c1` (configuration not stated), for which the concentration at half-maximal activity (AC50) is 6.47 µM.
As for `COc1ccc(/C=N/NC(=O)CCn2cnc(-c3ccccc3)c2-c2ccccc2)cc1OC`, the AC50 is 0.922 µM.
Regarding `C=CCCC(=O)Nc1nc(C)c(-c2csc(Nc3ccc(Cl)cc3)n2)s1`, the AC50 is 3.83 µM.
On to `COc1cccc(Nc2nc(-c3cccs3)nc3ccccc23)c1`, for which the concentration at half-maximal activity (AC50) is 7.32 µM.
As for `N/C(=N\N=C/c1ccc(F)cc1)N/N=C\c1ccc(F)cc1`, the half-maximal activity concentration (AC50) is 5.13 µM.
On to `O=C1CC(=Nc2ccccc2)NN1c1ccccc1`, for which the AC50 was 12.4 µM.
Under `CCn1c(C(=O)O)c(CC(=O)Nc2cccc(C(F)(F)F)c2)c2ccccc21` stands 14.6 µM; under `O=C(NNC(=O)c1cc(-c2ccc(Cl)c(Cl)c2)nc2ccccc12)Nc1ccccc1`, 6.4 µM.
Under `Cc1cc(C(=O)Nc2nc3c(s2)CCCC3)cs1` stands > 19.5 µM (inactive).
As to `COc1ccc2cc1Oc1ccc(cc1)C[C@H]1c3c(cc(OC)c4c3Oc3c(ccc5c3[C@H](C2)N(C)CC5)O4)CCN1C`, the AC50 was 3.63 µM.
As for `COc1ccc(-c2sc3ccccc3c2-c2ccc(OCCN3CCCCC3)cc2)cc1`, the figure is 1.4 µM; as for `COc1cc(OC)cc(C(=O)Nc2ccc(Nc3ccccc3)cc2)c1`, 7.41 µM.
For the compound `O=C(CSc1ncnc2nc[nH]c12)Nc1nnc(SCc2ccc(Cl)c(Cl)c2)s1`, the concentration at half-maximal activity (AC50) is 7.45 µM.
For the compound `COc1ccccc1C1=NOC(COc2ccc3c(C)cc(=O)oc3c2)C1` (configuration not stated), the half-maximal activity concentration (AC50) is 0.288 µM.
For `Cc1cccc(NS(=O)(=O)c2ccc(C3CCCCC3)cc2)c1`, the concentration at half-maximal activity (AC50) is 5.18 µM.
As to `O=c1c(Cl)c(NCc2ccccc2Cl)cnn1C12CC3CC(CC(C3)C1)C2`, the AC50 was 2.43 µM.
Consider `O=C(c1c[nH]c2ccccc12)C(Cl)c1ccccc1` (configuration not stated), for which the concentration at half-maximal activity (AC50) is 11.2 µM.
Regarding `COc1cc(SC#N)ccc1N=Cc1c(C)[nH]n(-c2ccc(C)cc2)c1=O`, the concentration at half-maximal activity (AC50) was 5.99 µM.
Under `CCCCCCOc1ccc(/C(C)=N/NC2=NCCN2)cc1[N+](=O)[O-]` stands 3.69 µM.
Consider `Oc1ccc(C[C@@H]2CNC(=S)N2CCCCC2CCCCC2)cc1`, for which the AC50 is 6.13 µM.
With `Cc1ccc(S(=O)(=O)N(C)c2ccc(OCc3cccc(C)c3)cc2)cc1`, the half-maximal activity concentration (AC50) is 1.99 µM.
Turning to `Nc1nnc(SCC(=O)OCC(=O)NC2CCCCC2)s1`, the AC50 was > 19.5 µM (inactive).
For the compound `CCCCC(=O)Nc1nc(C)c(-c2csc(Nc3cc(OC)ccc3OC)n2)s1`, the half-maximal activity concentration (AC50) is 2.27 µM.
With `O=C(/C=C/c1ccccc1)NC(NC(=S)Nc1cc(Cl)ccc1Cl)C(Cl)(Cl)Cl` (configuration not stated), the half-maximal activity concentration (AC50) is 6.28 µM.
Turning to `O=C(CSc1ncnc2nc[nH]c12)c1ccc(Cl)cc1`, the AC50 was 6.23 µM.
Under `O=C(Cn1ncc(Cl)c(Cl)c1=O)NCC1CCCCC1` stands 5.74 µM; under `O=C(/C=C/c1ccccc1)NC(=S)NNC(=O)c1cnccn1`, 6.84 µM.
In the case of `O=c1cc(-c2ccccc2)[nH]n1-c1nc2ccccc2s1`, the AC50 was 5.53 µM.
On to `COc1cccc(N2CCN(Cc3nc4scc(-c5ccccc5)c4c(=O)[nH]3)CC2)c1`, for which the AC50 was 2.59 µM.
As for `O=c1cc(N2CCCCC2)c(-c2ccccc2)nn1Cc1cccc(Cl)c1`, the figure is 4.56 µM; as for `Cc1ccccc1CNc1ccc(C(CC(N)=O)NC(=O)c2ccc(Br)cc2)cc1[N+](=O)[O-]` (configuration not stated), 3.96 µM; as for `Cc1ccc(Cl)cc1NC(=S)N/N=C/c1cccc2ccccc12`, 0.298 µM.
Consider `O=C(/C=C/c1ccc2c(c1)OCO2)NCCSCc1ccc(Cl)cc1`, for which the AC50 was 0.957 µM.
As for `Nc1ccc(N=Nc2ccccc2)c2ccccc12`, the figure is 12.6 µM.
As to `O=C1CC(c2cc(Br)ccc2F)c2cc3c(cc2N1)CCC3` (configuration not stated), the half-maximal activity concentration (AC50) is 0.196 µM.
`CC(NC(=O)c1ccc([N+](=O)[O-])o1)C12CC3CC(CC(C3)C1)C2` (configuration not stated): the concentration at half-maximal activity (AC50) is 9.54 µM.
Under `N#Cc1c(-c2ccccc2)cc(-c2ccccc2)nc1SCCC(=O)O` stands 2.41 µM; under `Cc1cc(C)cc(NC(=O)CCc2nc3sc4c(c3c(=O)[nH]2)CCCC4)c1`, 5.26 µM.
For `C=CCn1c2ccccc2c(=O)c2cc(C#Cc3cc(OC)cc(OC)c3)ccc21`, the AC50 was 11.1 µM.
Turning to `CCOC(=O)C(=Cc1ccc(OCc2ccc([N+](=O)[O-])cc2)c(OC)c1)C(=O)OCC`, the concentration at half-maximal activity (AC50) was 3.03 µM.
For `CCN1CCN(Cc2ccc(NC(=O)c3ccc(C)c(NC(=O)c4cc(-c5ccc(Br)cc5)n[nH]4)c3)cc2C(F)(F)F)CC1`, the AC50 is 11.6 µM.
Consider `CCCCCc1ccc(OCCCC[n+]2cccc(C)c2)c(CCCCC)c1`, for which the AC50 was 7.42 µM.
As for `Cc1cccc(-n2ncc(Cl)c(Cl)c2=O)c1`, the half-maximal activity concentration (AC50) was 4.52 µM.
As to `Nc1ccccc1N=Cc1ccc(-c2cccc(Cl)c2)o1`, the AC50 was 4.22 µM.
As for `Cc1nc2ccccc2n1-c1nc(-c2ccco2)cc(C(F)(F)F)n1`, the AC50 is 0.817 µM.
`Cc1ccc(C2C(/C=C3/SC(=S)NC3=O)=C(c3cccs3)Oc3ccccc32)cc1` (configuration not stated): the AC50 was 1.21 µM.
With `N#CC(C#N)=C(C#N)c1ccc(Nc2ccccc2)cc1`, the AC50 is 3.14 µM.
For `COc1cc(CNCCc2c[nH]c3ccccc23)ccc1OCc1ccc(F)cc1`, the AC50 was 4.2 µM.
As for `N=C(N)SCc1nc2ccccc2c(=O)n1-c1ccccc1Cl`, the figure is 12.5 µM; as for `COc1ccc(-c2c(-c3cc(OC)cc(OC)c3)n(C)c3ccc(-c4cc(F)cc(OC)c4)cc23)cc1`, > 19.5 µM (inactive).
Under `O=C(Nc1nc2ccccc2s1)C1CCN(S(=O)(=O)c2cc([N+](=O)[O-])ccc2Cl)CC1` stands 19 µM; under `Cc1nc(NC(=O)c2ccco2)sc1-c1csc(Nc2ccc(Cl)cc2)n1`, 2.54 µM.
Turning to `O=c1[nH]c(=O)n(CCC2=CCCCC2)c(O)c1/C=N/Nc1ccccc1`, the AC50 is 3.76 µM.
In the case of `c1cc2cc(-c3c(-c4ccc5c(c4)OCO5)noc3-c3ccsc3)ccc2[nH]1`, the half-maximal activity concentration (AC50) was 4.19 µM.
On to `CC(=O)Oc1ccc2ccccc2c1C(NC(=O)Cc1ccccc1)c1ccc(Cl)cc1` (configuration not stated), for which the half-maximal activity concentration (AC50) is 6.3 µM.
With `Oc1cccc(-c2nc3c4c(ncn3n2)-c2ccccc2CC42CCCC2)c1`, the concentration at half-maximal activity (AC50) was 1.5 µM.
As for `C=C(CC[C@@H](O)C(C)(C)O)[C@H]1CC[C@]2(C)[C@@H]1CCC1[C@@]3(C)CCC(=O)C(C)(C)C3CC[C@]12C` (some centres not stated), the figure is 2.52 µM.
On to `CCSc1nnc(NC(=O)NC(CC)(C(F)(F)F)C(F)(F)F)s1`, for which the AC50 was 12 µM.
On to `FC(F)Oc1ccc(-c2csc(NNC3=NCCCCC3)n2)cc1`, for which the concentration at half-maximal activity (AC50) was 3.28 µM.
For `COc1ccc(C2c3c(ncn(Cc4ccco4)c3=N)Oc3ccc4ccccc4c32)cc1` (configuration not stated), the AC50 is 7.79 µM.
As for `CCN1CCN(CCCNC(=O)c2ccc3c(c2)NC(=O)/C(=C\c2cccc(C)c2)S3)CC1`, the figure is 3.62 µM; as for `Nc1cc(-c2ccc(OC(F)(F)F)cc2)nn1-c1ccc(Cl)c(Cl)c1`, 5.83 µM.
Regarding `Oc1ccc(-c2csc(Nc3ccccn3)n2)c(O)c1`, the AC50 is 3.93 µM.
As for `CC(C)C[C@H]1CN=C(Nc2ccccc2)N1CC1CCC(C(C)(C)C)CC1` (some centres not stated), the AC50 is 5.34 µM.
With `c1ccc(CN2CCN(c3nc(NCc4ccco4)c4ccccc4n3)CC2)cc1`, the concentration at half-maximal activity (AC50) was 4.22 µM.
For the compound `CCOc1ccc(OCc2cccc(C(=O)Nc3ccc(CN4CCCCC4)cc3)c2)cc1`, the concentration at half-maximal activity (AC50) is 5.38 µM.
Under `O=C1C2=C(NC(=S)NC2c2ccc(Cl)cc2)NC(c2ccc(Cl)cc2)N1c1ccc(Cl)cc1` (configuration not stated) stands 6.8 µM; under `CC1(C)C=Cc2c(c3c(c4c(=O)c(-c5ccc(O)cc5)coc24)OC(C)(C)CC3)O1`, 7.5 µM.

(Values after PubChem BioAssay AID463074 (Broad Institute, 2010).)
